Reference: patent publication US8212051B2, “Process for the preparation of pure irbesartan” (Lek Pharmaceuticals, D.D., priority 2006, dated 2012)
Where a name gives a salt, the structure may show the parent alone.

Key:
[1] = Solubility in boiling acetone (amount of acetone needed to dissolve 1 g); assay type: physicochemical; conditions: per 1 g substance
[2] = Stability against degradation when dissolved in hot mixture of solvents and extracted; assay type: physicochemical; conditions: salt dissolved in hot mixture of solvents and extracted; compared with purification via HCl salt

Row | SMILES | amount of acetone needed to dissolve 1 g [1] | stability against degradation [2]
1 | CCCCC1=NC2(CCCC2)C(=O)N1Cc1ccc(-c2ccccc2-c2nnn[nH]2)cc1 [irbesartan HBr, hydrobromide acid addition salt of 2-n-butyl-3-[[2′-(tetrazol-5-yl)biphenyl-4-yl]methyl]-1.3-diazaspiro[4.4]non-1-en-4-one] | 6 mL | more stable against degradation
2 | CCCCC1=NC2(CCCC2)C(=O)N1Cc1ccc(-c2ccccc2-c2nnn[nH]2)cc1 [irbesartan, 2-n-butyl-3-[[2′-(tetrazol-5-yl)biphenyl-4-yl]methyl]-1.3-diazaspiro[4.4]non-1-en-4-one] | 100 mL | –
3 | CCCCC1=NC2(CCCC2)C(=O)N1Cc1ccc(-c2ccccc2-c2nnn[nH]2)cc1 [irbesartan HCl] | 15 mL | –
